The target of the test is full-length human PRMT6 (Flag- and His-tagged) (Homo sapiens, UniProt Q96LA8). Nature of the test: PRMT6 biochemical assay (3H-SAM Flashplate, histone H4 36-50 K44me1 peptide). The note with it: 1 nM PRMT6, 30 min preincubation, 75 nM peptide. The essentials:
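Flag/His-tagged full-length PRMT6 (1 nM) pre-incubated 30 min RT with compound in 20 mM Bicine pH 7.6, then given 200 nM 3H-SAM, 250 nM cold SAM and 75 nM biotinylated H4 36-50 K44me1 peptide. Methylated peptide captured on streptavidin Flashplates and counted; % inhibition versus DMSO and 1 mM SAH controls, fitted to 3- or 4-parameter curves.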
Sequence of full-length human PRMT6 (Flag- and His-tagged) (Q96LA8 with tags, fused parts or gaps): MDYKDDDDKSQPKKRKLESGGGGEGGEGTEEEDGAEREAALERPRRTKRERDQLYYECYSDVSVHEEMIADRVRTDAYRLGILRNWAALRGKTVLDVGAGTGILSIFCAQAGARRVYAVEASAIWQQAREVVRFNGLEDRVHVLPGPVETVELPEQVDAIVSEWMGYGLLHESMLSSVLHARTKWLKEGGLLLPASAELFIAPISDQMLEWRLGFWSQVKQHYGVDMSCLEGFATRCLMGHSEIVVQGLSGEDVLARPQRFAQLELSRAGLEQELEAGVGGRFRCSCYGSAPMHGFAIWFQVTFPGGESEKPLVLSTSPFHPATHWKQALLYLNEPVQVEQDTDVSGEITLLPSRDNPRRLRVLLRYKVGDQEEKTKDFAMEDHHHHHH
With `CCC1(CC)C[C@]2(CC[C@@H](c3n[nH]cc3CN(C)CCNC)CC2)NC1=O` [compound 48, (5r,8r)-3,3-diethyl-8-(4-((methyl(2-(methylamino)ethyl)amino)methyl)-1H-pyrazol-3-yl)-1-azaspiro[4.5]decan-2-one], 73.6 nM corresponded to half-maximal inhibition (IC50). Under `CNCCN(C)Cc1c[nH]nc1C1CCC(COC)(COCC2CCOCC2)CC1` (stereo not drawn) [compound 45] stands 53.7 nM. The result for `CCC1(CC)C[C@]2(CC[C@H](c3n[nH]cc3CN(C)CCNC)CC2)NC1=O` [compound 47, (5s,8s)-3,3-diethyl-8-(4-((methyl(2-(methylamino)ethyl)amino)methyl)-1H-pyrazol-3-yl)-1-azaspiro[4.5]decan-2-one] reads 15.8 nM; that for `CNCCN(C)Cc1c[nH]nc1C1CCC(COCCC2CCOCC2)(COCCC2CCOCC2)CC1` [compound 40], 37.4 nM.

With `CNCCN(C)Cc1c[nH]nc1C1CCC(COCC2CC2)(COCC2CC2)CC1` [compound 41, N1-((3-(4,4-bis((cyclopropylmethoxy)methyl)cyclohexyl)-1H-pyrazol-4-yl)methyl)-N1,N2-dimethylethane-1,2-diamine], the IC50 stood at 6.94 nM. The result for `CNCCN(C)Cc1c[nH]nc1C1CCC(CO)(CO)CC1` [compound 44, (4-(4-((methyl(2-(methylamino)ethyl)amino)methyl)-1H-pyrazol-3-yl)cyclohexane-1,1-diyl)dimethanol] reads 21.5 nM; that for `CNCCN(C)Cc1c[nH]nc1C1=CCC2(CC1)CC(C)(C)CO2` (stereo not drawn) [compound 46, N1-((3-(3,3-dimethyl-1-oxaspiro[4.5]dec-7-en-8-yl)-1H-pyrazol-4-yl)methyl)-N1,N2-dimethylethane-1,2-diamine], 59.7 nM; that for `CN(C)CCN(C)Cc1c[nH]nc1[C@H]1CC[C@@]2(CC1)CC(C)(C)CO2` [compound 42, N1-((3-((5S,8S)-3,3-dimethyl-1-oxaspiro[4.5]decan-8-yl)-1H-pyrazol-4-yl)methyl)-N1,N2,N2-trimethylethane-1,2-diamine], 90.9 nM. `CCOCCOCC1(COCCOCC)CCC(c2n[nH]cc2CN(C)CCNC)CC1` [compound 39, N1-((3-(4,4-bis((2-ethoxyethoxy)methyl)cyclohexyl)-1H-pyrazol-4-yl)methyl)-N1,N2-dimethylethane-1,2-diamine] gave an IC50 of 42 nM. Molecule `CC[C@H]1CC[C@@H](c2n[nH]cc2CN(C)CCNC)CC1` [compound 1] yielded an IC50 of 10.2 nM. Under `CNCCN(C)Cc1ccnn1[C@H]1CC[C@@]2(CC1)CC(C)(C)CO2` [compound 49, N1-((1-((5s,8s)-3,3-dimethyl-1-oxaspiro[4.5]decan-8-yl)-1H-pyrazol-5-yl)methyl)-N1,N2-dimethylethane-1,2-diamine] stands 128 nM. `CN(C)CCN(C)Cc1c[nH]nc1[C@H]1CC[C@]2(CC1)CC(C)(C)CO2` [compound 43, N1-((3-((5r,8r)-3,3-dimethyl-1-oxaspiro[4.5]decan-8-yl)-1H-pyrazol-4-yl)methyl)-N1,N2,N2-trimethylethane-1,2-diamine]: inhibition was half-maximal at 288 nM (IC50).

Values taken from patent US20170291905A1, “ARGININE […] INHIBITORS AND USES THEREOF” (Epizyme, Inc., priority 2014, published 2017).
